This assay deals with T1, human recombinant mGluR5 (Homo sapiens, UniProt P41594).
T1 construct: expressed in transfected cells; host or cells: HEK 293 cell line; cultured with tetracycline, hygromycin and geneticin; tetracycline withdrawn 3-7 days before the assay
T1 sequence (P41594 21-1212): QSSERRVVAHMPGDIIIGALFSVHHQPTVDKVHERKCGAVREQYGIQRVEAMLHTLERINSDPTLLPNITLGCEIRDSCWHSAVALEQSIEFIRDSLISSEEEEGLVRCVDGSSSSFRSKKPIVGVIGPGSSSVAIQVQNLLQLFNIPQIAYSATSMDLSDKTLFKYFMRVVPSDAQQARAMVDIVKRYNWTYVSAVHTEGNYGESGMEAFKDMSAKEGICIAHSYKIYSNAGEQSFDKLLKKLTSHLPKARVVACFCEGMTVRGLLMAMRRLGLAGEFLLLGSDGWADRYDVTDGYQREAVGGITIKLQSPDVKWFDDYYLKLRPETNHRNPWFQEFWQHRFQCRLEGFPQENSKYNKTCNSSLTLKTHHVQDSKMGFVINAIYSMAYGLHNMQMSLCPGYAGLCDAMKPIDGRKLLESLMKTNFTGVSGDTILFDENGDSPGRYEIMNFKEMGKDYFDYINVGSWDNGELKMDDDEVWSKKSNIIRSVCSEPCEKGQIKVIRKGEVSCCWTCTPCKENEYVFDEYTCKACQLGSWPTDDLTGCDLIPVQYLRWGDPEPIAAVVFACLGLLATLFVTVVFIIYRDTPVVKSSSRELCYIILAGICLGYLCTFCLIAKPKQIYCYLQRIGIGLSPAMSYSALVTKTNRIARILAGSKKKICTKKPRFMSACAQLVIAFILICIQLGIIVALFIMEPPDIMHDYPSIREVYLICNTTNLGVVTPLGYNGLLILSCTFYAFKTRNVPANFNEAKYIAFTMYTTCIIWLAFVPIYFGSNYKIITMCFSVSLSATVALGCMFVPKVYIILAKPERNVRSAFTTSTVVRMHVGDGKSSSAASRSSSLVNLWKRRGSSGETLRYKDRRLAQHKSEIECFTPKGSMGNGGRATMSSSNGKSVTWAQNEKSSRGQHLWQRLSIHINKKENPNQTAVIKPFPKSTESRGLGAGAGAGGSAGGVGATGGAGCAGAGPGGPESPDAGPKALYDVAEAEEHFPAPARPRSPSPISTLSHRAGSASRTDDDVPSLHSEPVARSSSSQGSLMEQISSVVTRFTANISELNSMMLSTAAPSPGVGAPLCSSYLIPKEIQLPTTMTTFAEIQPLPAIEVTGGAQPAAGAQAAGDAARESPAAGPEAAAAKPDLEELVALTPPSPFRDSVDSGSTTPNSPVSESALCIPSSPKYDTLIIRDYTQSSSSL
The experiment in a line: positive modulation of mGluR5, calcium based FLIPR assay in HEK 293 cells. The note with it: HEK 293 cell line expressing human recombinant mGluR5; peak height of Ca release fluorescence signal after glutamate at approximately 5% basal stimulation; nonlinear regression. The method, then:
The positive modulation of mGluR5 is measured in a HEK 293 cell line expressing human recombinant mGluR5 and is detected with calcium based FLIPR assay. The cells are cultured with DMEM supplemented with 10% FCS, 2 μg/mL tetracycline, 100 μg/mL hygromycin and 500 μg/mL gneticin. The cell culture media is exchanged for tetracycline-free cell culture media 3-7 days before the assay. One day before the assay the cell culture medium is exchanged to DMEM without glutamine and phenol red and supplemented with 10% FCS, 100 μg/mL hygromycin and 500 μg/mL geneticin. On the assay day, the medium of the subconfluent cultures is removed and the cells are detached by addition of 2.5 ml EDTA(0.02%) per 175 cm2 culture flask for 1 minute. The cells are resuspend in Ringer solution (140 mM NaCl, 5 mM KCl, 2.5 mM CaCl2, 1.5 mM MgCl2, 5 mM Glucose, 10 mM Hepes; adjusted to pH 7.4 with NaOH), pooled and Ringer solution added to adjust the volume to 50 mL. The cell suspension is centrifuged for 5 min at 1500 U/min (425 g). The supernatant is removed and the cells washed a second time with 50 ml fresh Ringer solution and centrifuged again as before. The supernatant is again removed and the pellet resuspended in Ringer solution to 1,000,000 cells/ml (1×10^6 cells/mL). The cells are plated onto BD BioCoat Poly-D-Lysine 384 well plates (20.000 cells/well; 20 μl/well). The lid covered plates are then incubated until use at 37° C./10% CO2. For dye loading, 20 μl of Calcium-4 assay kit solution (prepared according to the manufacturer's description in Ringer solution) are added to the cells and the plates are incubated for 80 min 37° C. and then 10 min at room temperature.
Controls, Compound Dilution and Assay Execution:
Each assay plate contained wells with “high” and “low” controls:
Low controls 1% DMSO/ringer solution+basal glutamate activation (defined as 100% CTL).
High controls 10 μM CDPPB+basal glutamate activation (defined as 200% CTL).
Test compounds are dissolved and diluted in DMSO to 100-fold the desired concentrations. In a second step, the compounds are diluted in Ringer solution such that the compounds are 4-fold more concentrated than the desired final assay concentration. The final DMSO concentration was 1%.
20 μl of each compound solution are then transferred to the assay plate and the Ca2+ kinetic is measured to determine any intrinsic compound activity. After 5 min incubation in the FLIPR device, the second stimulation with 20 μl of glutamate in Ringer solution (glutamate concentration adjusted to approximately 5% basal stimulation of the maximal possible glutamate effect) is added and the kinetic Ca2+ response of the wells was measured for the modulation effect.
The peak height of the Ca release related fluorescence signal (9-66) is used for the EC50. The EC50 of the modulation is calculated over a nonlinear regression with GraphPad Prism (Table 1).
As for `Cc1cc(-c2cc(-c3ccccc3)n(CC(=O)N3CCN(c4ncccn4)CC3)n2)ccc1F` [Example 7.01.01, 2-(3-(4-Fluoro-3-methyl-phenyl)-5-phenyl-pyrazol-1-yl)-1-(4-(2-pyrimidinyl)-1-piperazinyl)-ethanon], the half-maximal effective concentration (EC50) (in general, the concentration that produces a half-maximal response) came to 0.006 µM.

In the case of `Cc1cc(-c2cc(-c3ccccc3)n(CC(=O)N3CCN(c4cccnn4)CC3)n2)ccc1F` [Example 7.01.02], the EC50 was found to be 0.009 µM.

With `COc1cc(N2CCN(C(=O)Cn3nc(-c4ccc(F)c(C)c4)cc3-c3ccccc3)CC2)ncn1` [Example 7.01.03], the concentration giving a half-maximal response (EC50) was determined as 0.011 µM.

As to `Cc1cc(-c2cc(-c3ccccc3)n(CC(=O)N3CCN(c4ccccn4)CC3)n2)ccc1F` [Example 7.01.04], the 50% effective concentration (EC50) was 0.011 µM.

Take `Cc1cc(-c2cc(-c3ccccc3)nn2CC(=O)N2CCN(c3ncccn3)CC2)ccc1F` [Example 7.01.05]: the half-maximal effective concentration (EC50) stood at 0.044 µM.

Consider `Cc1cc(-c2cc(-c3ccccc3)nn2CC(=O)N2CCN(c3ccccn3)CC2)ccc1F` [Example 7.01.06], for which the EC50 is 0.099 µM.

On to `O=C(Cn1nc(-c2ccccc2)cc1-c1ccccc1)N1CCN(c2nccc3ccccc23)CC1` [Example 7.01.07], for which the EC50 amounted to 0.621 µM.

In the case of `O=C(Cn1nc(-c2ccccc2)cc1-c1ccccc1)N1CCN(c2ccncn2)CC1` [Example 7.01.08], the EC50 amounted to 0.349 µM.

On to `O=C(Cn1nc(-c2ccccc2)cc1-c1ccccc1)N1CCN(c2ccc(Cl)cn2)CC1` [Example 7.01.09], for which the EC50 was 0.373 µM.

In the case of `N#Cc1ccccc1N1CCN(C(=O)Cn2nc(-c3ccccc3)cc2-c2ccccc2)CC1` [Example 7.01.10], the EC50 came out at 0.75 µM.

In the case of `CCOc1ccccc1N1CCN(C(=O)Cn2nc(-c3ccccc3)cc2-c2ccccc2)CC1` [Example 7.01.11], the EC50 was determined as 1.42 µM.

As for `O=C(Cn1nc(-c2ccccc2)cc1-c1ccccc1)N1CCN(c2ccc(Cl)nn2)CC1` [Example 7.01.12], the EC50 came to 0.216 µM.

As for `O=C(Cn1nc(-c2ccc(F)cc2)cc1-c1ccc(F)cc1)N1CCN(c2ncccn2)CC1` [Example 7.01.13], the half-maximal effective concentration (EC50) stood at 0.014 µM.

Regarding `COc1cc(N2CCN(C(=O)Cn3nc(-c4ccc(F)cc4)cc3-c3ccc(F)cc3)CC2)ncn1` [Example 7.01.14], the 50% effective concentration (EC50) is 0.022 µM.

With `O=C(Cn1nc(-c2ccc(F)cc2)cc1-c1ccc(F)cc1)N1CCN(c2ccccn2)CC1` [Example 7.01.15], the concentration for a half-maximal effect (EC50) was 0.03 µM.

Regarding `COc1ccnc(N2CCN(C(=O)Cn3nc(-c4ccc(F)cc4)cc3-c3ccc(F)cc3)CC2)c1` [Example 7.01.16], the half-maximal effective concentration (EC50) turned out to be 0.032 µM.

With `COc1cccc(-c2cc(C3CCCCC3)n(CC(=O)N3CCN(c4ncccn4)CC3)n2)c1` [Example 7.01.17], the half-maximal effective concentration (EC50) was 0.117 µM.

Regarding `COc1cccc(-c2cc(C3CCCCC3)n(CC(=O)N3CCN(c4ccccn4)CC3)n2)c1` [Example 7.01.18], the half-maximal effective concentration (EC50) was 0.285 µM.

In the case of `COc1ccc(-c2cc(C(C)C)n(CC(=O)N3CCN(c4ncccn4)CC3)n2)cc1` [Example 7.01.19], the concentration for a half-maximal effect (EC50) is 0.086 µM.

Consider `COc1ccc(-c2cc(C(C)C)n(CC(=O)N3CCN(c4ccccn4)CC3)n2)cc1` [Example 7.01.20], for which the EC50 came to 0.183 µM.

`COc1ccc(-c2cc(C(C)C)n(CC(=O)N3CCN(c4cc(C)ccn4)CC3)n2)cc1` [Example 7.01.21]: the EC50 was determined as 0.111 µM.

In the case of `COc1ccc(-c2cc(C(C)C)n(CC(=O)N3CCN(c4cccnn4)CC3)n2)cc1` [Example 7.01.22], the EC50 came to 0.701 µM.

With `COc1ccc(-c2cc(C(C)C)n(CC(=O)N3CCN(c4cc(OC)ncn4)CC3)n2)cc1` [Example 7.01.23], the EC50 was 0.221 µM.

On to `Cc1ccnc(N2CCN(C(=O)Cn3nc(-c4ccc(F)c(C)c4)cc3C(C)C)CC2)c1` [Example 7.01.24], for which the EC50 is 0.079 µM.

`COc1ccnc(N2CCN(C(=O)Cn3nc(-c4ccc(F)c(C)c4)cc3C(C)C)CC2)c1` [Example 7.01.25]: the EC50 stood at 0.112 µM.

Consider `Cc1cc(-c2cc(C(C)C)n(CC(=O)N3CCN(c4ccccn4)CC3)n2)ccc1F` [Example 7.01.26], for which the EC50 stood at 0.138 µM.

On to `COc1cc(N2CCN(C(=O)Cn3nc(-c4ccc(F)c(C)c4)cc3C(C)C)CC2)ncn1` [Example 7.01.27], for which the EC50 worked out at 0.064 µM.

For the compound `Cc1cc(-c2cc(C(C)C)n(CC(=O)N3CCN(c4cccnn4)CC3)n2)ccc1F` [Example 7.01.29], the EC50 came out at 0.158 µM.

As for `COc1cnnc(N2CCN(C(=O)Cn3nc(-c4ccc(F)c(C)c4)cc3C(C)C)CC2)c1` [Example 7.01.30], the EC50 worked out at 0.987 µM.

Turning to `Cc1cc(-c2cc(C(C)C)n(CC(=O)N3CCN(c4ncc(F)cn4)CC3)n2)ccc1F` [Example 7.01.31], the EC50 came out at 0.208 µM.

Regarding `COc1cnc(N2CCN(C(=O)Cn3nc(-c4ccc(F)c(C)c4)cc3C(C)C)CC2)nc1` [Example 7.01.32], the 50% effective concentration (EC50) came out at 0.075 µM.

For `Cc1ccnc(N2CCN(C(=O)Cn3nc(-c4ccc(F)c(C)c4)cc3C3CCCCC3)CC2)c1` [Example 7.01.33], the EC50 was 0.161 µM.

Consider `Cc1cc(-c2cc(C3CCCCC3)n(CC(=O)N3CCN(c4ncccn4)CC3)n2)ccc1F` [Example 7.01.34], for which the EC50 is 0.06 µM.

With `Cc1cc(-c2cc(C3CCCCC3)n(CC(=O)N3CCN(c4ccccn4)CC3)n2)ccc1F` [Example 7.01.35], the EC50 came out at 0.213 µM.

`COc1cc(N2CCN(C(=O)Cn3nc(-c4ccc(F)c(C)c4)cc3C3CCCCC3)CC2)ncn1` [Example 7.01.36]: the 50% effective concentration (EC50) was 0.308 µM.

On to `COc1ccnc(N2CCN(C(=O)Cn3nc(-c4ccc(F)c(C)c4)cc3C3CCCCC3)CC2)c1` [Example 7.01.37], for which the EC50 was found to be 0.298 µM.

Turning to `Cc1cc(-c2cc(C3CCCCC3)n(CC(=O)N3CCN(c4cccnn4)CC3)n2)ccc1F` [Example 7.01.38], the half-maximal effective concentration (EC50) is 0.1 µM.

For the compound `Cc1cc(-c2cc(C3CC3)n(CC(=O)N3CCN(c4ccccn4)CC3)n2)ccc1F` [Example 7.01.41], the half-maximal effective concentration (EC50) was found to be 0.234 µM.

Regarding `Cc1cc(-c2cc(C3CC3)n(CC(=O)N3CCN(c4ncccn4)CC3)n2)ccc1F` [Example 7.01.42], the EC50 came out at 0.101 µM.

Regarding `Cc1cc(-c2cc(C3CC3)n(CC(=O)N3CCN(c4cccnn4)CC3)n2)ccc1F` [Example 7.01.43], the EC50 was found to be 0.725 µM.

`Cc1ccnc(N2CCN(C(=O)Cn3nc(-c4ccc(F)c(C)c4)cc3C3CC3)CC2)c1` [Example 7.01.44]: the EC50 turned out to be 0.176 µM.

As for `COc1cnnc(N2CCN(C(=O)Cn3nc(-c4ccc(F)c(C)c4)cc3C3CC3)CC2)c1` [Example 7.01.45], the EC50 is 1.01 µM.

`COc1ccnc(N2CCN(C(=O)Cn3nc(-c4ccc(F)c(C)c4)cc3C3CC3)CC2)c1` [Example 7.01.46]: the EC50 is 0.333 µM.

With `COc1cc(N2CCN(C(=O)Cn3nc(-c4ccc(F)c(OC)c4)cc3C(C)C)CC2)ncn1` [Example 7.01.47], the concentration giving a half-maximal response (EC50) worked out at 0.447 µM.

As for `COc1cc(-c2cc(C(C)C)n(CC(=O)N3CCN(c4cc(C)ccn4)CC3)n2)ccc1F` [Example 7.01.48], the EC50 amounted to 0.687 µM.

For `COc1cc(-c2cc(C(C)C)n(CC(=O)N3CCN(c4ccccn4)CC3)n2)ccc1F` [Example 7.01.49], the half-maximal effective concentration (EC50) is 1.06 µM.

As to `COc1cc(-c2cc(C(C)C)n(CC(=O)N3CCN(c4ncc(Br)cn4)CC3)n2)ccc1F` [Example 7.01.50], the EC50 was found to be 0.512 µM.

For `COc1cc(-c2cc(C(C)C)n(CC(=O)N3CCN(c4ncccn4)CC3)n2)ccc1F` [Example 7.01.51], the EC50 worked out at 0.485 µM.

In the case of `COc1ccc(-c2cc(C(C)C)n(CC(=O)N3CCN(c4cc(C)ccn4)CC3)n2)cc1C` [Example 7.01.52], the EC50 is 0.431 µM.

On to `COc1ccc(-c2cc(C(C)C)n(CC(=O)N3CCN(c4ncccn4)CC3)n2)cc1C` [Example 7.01.54], for which the concentration for a half-maximal effect (EC50) was determined as 0.205 µM.

As to `COc1ccnc(N2CCN(C(=O)Cn3nc(-c4ccc(OC)c(C)c4)cc3C(C)C)CC2)c1` [Example 7.01.55], the EC50 amounted to 0.501 µM.

As to `COc1ccc(-c2cc(C(C)C)n(CC(=O)N3CCN(c4ccccn4)CC3)n2)cc1C` [Example 7.01.56], the half-maximal effective concentration (EC50) came out at 0.393 µM.

Regarding `O=C(Cn1nc(-c2ccc(F)cn2)cc1-c1ccccc1)N1CCN(c2ncccn2)CC1` [Example 7.01.57], the EC50 was 0.081 µM.

Turning to `O=C(Cn1nc(-c2ccc(F)cn2)cc1-c1ccccc1)N1CCN(c2ccccn2)CC1` [Example 7.01.58], the 50% effective concentration (EC50) was 0.211 µM.

The values above are taken from patent US8822464B2, “N-aryl-piperazine derivatives and their use as positive allosteric modulators of mGluR5 receptors” (Boehringer Ingelheim International GmbH, priority 2011, dated 2014).
